Measurements from patent US20250000910A1, “Methods of Improving Therapeutic Efficacy of Mesenchymal Stromal Cells for Treatment of Osteoarthritis” (Georgia Tech Research Corporation, priority 2021, published 2025).
Entries after “also recorded” stand apart in the source; their conditions may differ.

Assays:
Format in all cases: cell-based, human
[1] = tested on: more therapeutic hMSCs (donors M1 and M2); experiment: Cytokine secretion of more therapeutic hMSCs after pharmacological intervention (Luminex 41 Plex, PLSDA); details: for overall paracrine (cytokine) signaling response / secretion of therapeutic related cytokines (GM-CSF, GRO, IL-4, PDGF-AA): donors M1 and M2, +IL-1β 24 hr, vs CTRL
Protocol: (§1) Loaded samples (2.03 μL) were determined to be within the linear range of detection of the […] Millipore Corporation) system. Cytokines were quantified using a bead based multiplex immunoassay, Luminex Cytokine/Chemokine 41 Plex Immunomodulatory Kit ([…] Millipore Corporation). […] PLSDA was performed in MATLAB (Mathworks) using a function written by Cleiton Nunes (Mathworks File Exchange). This approach accounts for the multivariate nature of the data without overfitting. Prior to inputting the data into the algorithm, all data was z-scored [(observed-mean)/SD]. Intracellular signaling phospho-proteins and cytokine media read outs were used as the independent variables and the different hMSC donor's treatment conditions were used as the outcome variables. LVs in a multidimensional space (dimensionality varied by number of independent input variables) were defined and the two primary LVs were used for orthogonal rotation to best separate groups in the new plane defined by LV1 and LV2 (FIGS. 5a-5c). • Statistical Analysis

[2] = tested on: p-Akt; experiment: hMSC intracellular signaling analysis, Akt/mTOR phosphoprotein 11-plex
Text: Millipore Corporation) system.

[3] = tested on: less therapeutic hMSCs (donors L1 and L2); experiment: Cytokine secretion of less therapeutic hMSCs after pharmacological intervention (Luminex 41 Plex, PLSDA); details: vs CTRL
Protocol: as §1

Compound | overall paracrine (cytokine) signaling response [1] | secretion of therapeutic related cytokines (GM-CSF, GRO, IL-4, PDGF-AA) [1] | further results
Cc1cc(N2CCOCC2)cc2[nH]c(-c3c(NC[C@@H](O)c4cccc(Cl)c4)cc[nH]c3=O)nc12 [BMS-536924] | reduced overall paracrine signaling response | no effect | –
NC1(c2ccc(-c3nc4ccn5c(=O)[nH]nc5c4cc3-c3ccccc3)cc2)CCC1 [MK-2206] | – | – | p-Akt phospho-protein levels relative to CTRL ([2]; less therapeutic hMSC donor L2, combination Metformin and MK-2206, +IL-1β): significantly (p<0.01) less p-Akt phospho-protein levels; also recorded: decreased p-Akt signaling; secretion of therapeutic related cytokines (GM-CSF, GRO, IL-4, PDGF-AA) ([3]; donors L1 and L2, +IL-1β 24 hr): no effect; secretion of nonspecific cytokines ([3]; donors L1 and L2, +IL-1β): distinct reductions in nonspecific cytokines
CO[C@H]1C[C@@H]2CC[C@@H](C)[C@@](O)(O2)C(=O)C(=O)N2CCCC[C@H]2C(=O)O[C@H]([C@H](C)C[C@@H]2CC[C@@H](O)[C@H](OC)C2)CC(=O)[C@H](C)/C=C(\C)[C@@H](O)[C@@H](OC)C(=O)[C@H](C)C[C@H](C)/C=C/C=C/C=C/1C [Rapamycin] | – | no effect | –
C[S+]([O-])c1ccc(-c2nc(-c3ccncc3)c(-c3ccc(F)cc3)[nH]2)cc1 (stereo not drawn) [SB203580] | – | reduced cytokine secretion of the therapeutic related cytokines | –
CCOC(=O)C1=C(N)Oc2ccc(Cl)cc2C1C(C#N)C(=O)OCC (stereo not drawn) [SC79] | the greatest potentiation of paracrine signaling | no effect | p-Akt phospho-protein levels relative to CTRL ([2]; more therapeutic hMSC donor M2, combination SP600125 and SC79, +IL-1β): significantly (p<0.001) more p-Akt phospho-protein levels; also recorded: increased p-Akt signaling; secretion of nonspecific cytokines ([1]; donors M1 and M2, +IL-1β): potentiated secretion of nonspecific cytokines; shift of paracrine signaling profile (PLSDA) ([1]; donors M1 and M2, +IL-1β): clear qualitative shift in the paracrine signaling profiles
